Patent US8956445B2, “High stability diionic liquid salts” (Sigma-Aldrich Co., priority 2004, dated 2015)
Like-named read-outs stand apart in the source and are kept apart here.

Assays:
[1] = Method: Thermal stabilities were measured by immobilizing an approximate 0.15-0.20 microns film of the ionic liquid on the inner wall of a fused silica capillary. The capillary was then heated slowly in an oven and a very sensitive flame ionization detector (or mass spectrometer) used to detect any volatilization or decomposition of the ionic liquid. There are several advantages of using this set-up to measure the thermal stabilities of ionic liquids. The thermal stability is measured in the absence of oxygen by purging the capillary with a continuous flow of an inert gas such as helium, hydrogen, or nitrogen. […] Finally, this approach can use mass spectrometry detection to determine the likely volatilization/decomposition products.
[2] = exposed to the atmosphere and heated; cited from earlier work
[3] = values taken from reference 31, cited from earlier work
Remark: listed apart in the source
[4] = Surface tension (DuNuoy Tensiometer); type: physicochemical; conditions: room temperature (23° C.)
[5] = Density (2.0 mL volumetric tube, weighing by difference); type: physicochemical; conditions: 23° C.
Method: (§1) The densities of the ionic liquids or, more correctly, […] (used synonymously except as indicated otherwise explicitly or by context) was determined at 23° C. by placing 2.0 mL of the ionic liquid in a 2.0 mL volumetric tube and weighing by difference. The melting points of the ionic liquids were determined using a Perkin Elmer Pyris 1 Differential Scanning calorimeter (Boston, Mass.). Typical methods involved using a 10° C./min temperature ramp to determine and identify the first and second order thermal transitions. […] For solid compounds, the melting points were verified using a capillary melting point apparatus. Refractive index measurements were conducted at 23° C. using a Bausch & Lomb Abbe-3L refractometer.

[6] = Refractive index (Abbe-3L refractometer); type: physicochemical; conditions: 23° C.
Method: as §1

[7] = Solvation interaction parameters by inverse gas-liquid chromatography (Abraham solvation model); type: physicochemical
Method: The preparation of the capillary columns for inverse gas-liquid chromatographic analysis was performed using a previously described procedure.^31 All capillary columns had efficiencies between 2100 to 2500 plates/meter. Characterization of the capillary columns and probe molecule descriptions are listed in supplemental information. Multiple linear regression analysis (MLRA) and statistical calculations were performed using the program Analyse-it (Microsoft, USA).
We have previously reported that the Abraham solvation model, a linear free energy approach that utilizes inverse gas-liquid chromatography to describe the solvation properties of a liquid, can be used to characterize room temperature ionic liquids.^31 Described by equation 1, the model provides the so-called “interaction parameters” (r, s, a, b, l) by using multiple linear regression analysis to fit the retention factor (k, determined chromatographically) to the solute descriptors (R2, π2^H, α2^H, β2^H, log L^16) for a wide variety of probe solute molecules. […] The solvation properties of four dicationic ionic liquids (see Table 4) were evaluated and the interaction parameters compared to those obtained for their traditional monocationic analogues 1-butyl-3-methylimidazolium and 1-butyl-1-methylpyrrolidinium ionic liquids.
Previously we characterized a large number of room temperature ionic liquids in terms of multiple solvation interactions using the solvation parameter model, shown in equation 3.^44 log k=c+rR2+sπ2^H+aα2^H+bβ2^H+l log L^16 [3] This approach utilizes inverse gas-liquid chromatography and allows the use of a large number of probe molecules to deconvolute solute retention in terms of the type and magnitude of individual solvation interactions. The solute descriptors (R2, π2^H, α2^H, β2^H, log L^16) from Equation 3 are obtained from the literature for many probe molecules containing a variety of functional groups.^45 The retention factor is determined chromatographically. The solute descriptors and retention factors are subjected to multiple linear regression analysis to obtain the interaction parameter coefficients (r, s, a, b, l), which ultimately characterize the stationary phase: r is the ability of the diionic liquid containing-stationary phase to interact with π and n electrons of the solute, s is a measure of the dipolarity/polarizability of the diionic liquid containing-stationary phase, a defines the diionic liquid containing-stationary phase hydrogen bond basicity, b is a measure of the hydrogen bond acidity, and/refers to the ability of the diionic liquid containing-stationary phase to separate adjacent members of a homologous series.^46
Test solutes used to determine interaction parameters and solvation thermodynamics were dissolved in dichloromethane. A Hewlett-Packard model 5890 gas chromatograph and a Hewlett-Packard 6890 series integrator were used for all separations. Split injection and flame ionization detection were utilized with injection and detection temperatures of 250° C. Helium was used as the carrier gas with a column inlet pressure of 3.1 psi and flow rate of 1.0 mL/min. Methane was used to determine the dead volume of the column. Multiple linear regression analysis and statistical calculations were performed using the program Analyze-it (Microsoft).

[8] = 0.15-0.20 micron film in fused silica capillary, helium flow, FID, tested only up to 400° C.

| Structure (SMILES) | thermal stability (volatilization/decomposition temperature) [1] | Miscibility with Heptane | Miscibility with Water | Surface Tension [4] [dynes/cm] | Density [5] [g/mL] | Refractive Index [6] | a (hydrogen bond basicity) ([7]; 40° C.) | b (hydrogen bond acidity) ([7]; 40° C.) | c (interaction parameter table, constant) ([7]; 40° C.) | l (dispersion forces) ([7]; 40° C.) | r (interaction via nonbonding and π-electrons) ([7]; 40° C.) | s (dipolarity/polarizability) ([7]; 40° C.) | a (hydrogen bond basicity) ([7]; 70° C.) | b (hydrogen bond acidity) ([7]; 70° C.) | c (interaction parameter table, constant) ([7]; 70° C.) | l (dispersion forces) ([7]; 70° C.) | r (interaction via nonbonding and π-electrons) ([7]; 70° C.) | s (dipolarity/polarizability) ([7]; 70° C.) | a (hydrogen bond basicity) ([7]; 100° C.) | b (hydrogen bond acidity) ([7]; 100° C.) | other results |
| --- | --- | --- | --- | --- | --- | --- | --- | --- | --- | --- | --- | --- | --- | --- | --- | --- | --- | --- | --- | --- | --- |
| CCCCn1cc[n+](C)c1.[Cl-] [BMIM-Cl, 1-butyl-3-methylimidazolium chloride, reference compound] | – | – | – | – | – | – | – | – | – | – | – | – | – | – | – | – | – | – | – | – | thermal stability (volatilization/decomposition temperature) [1, 8]: 145 °C; temperature of obvious signs of decomposition [2]: ≥ 150 °C |
| CCCCn1cc[n+](C)c1.O=S(=O)([N-]S(=O)(=O)C(F)(F)F)C(F)(F)F [BMIM—NTf2, 1-butyl-3-methylimidazolium bis[(trifluoromethylsulfonyl)imide]] | – | – | – | – | – | – | – | – | – | – | – | – | – | – | – | – | – | – | – | – | thermal stability (volatilization/decomposition temperature) [1, 8]: 185 °C; a (hydrogen bond basicity) ([3]; 40° C.): 2.02; b (hydrogen bond acidity) ([3]; 40° C.): 0.36; c (interaction parameter table, constant) ([3]; 40° C.): −2.87; l (dispersion forces) ([3]; 40° C.): 0.63; r (interaction via nonbonding and π-electrons) ([3]; 40° C.): 0; s (dipolarity/polarizability) ([3]; 40° C.): 1.89; a (hydrogen bond basicity) ([3]; 70° C.): 1.75; b (hydrogen bond acidity) ([3]; 70° C.): 0.38; c (interaction parameter table, constant) ([3]; 70° C.): −3.03; l (dispersion forces) ([3]; 70° C.): 0.56; r (interaction via nonbonding and π-electrons) ([3]; 70° C.): 0; s (dipolarity/polarizability) ([3]; 70° C.): 1.67; a (hydrogen bond basicity) ([3]; 100° C.): 1.55; b (hydrogen bond acidity) ([3]; 100° C.): 0.24; c (interaction parameter table, constant) ([3]; 100° C.): −3.13; l (dispersion forces) ([3]; 100° C.): 0.49; r (interaction via nonbonding and π-electrons) ([3]; 100° C.): 0; s (dipolarity/polarizability) ([3]; 100° C.): 1.60 |
| CCCC[N+]1(CCCCCCCCC[N+]2(CCCC)CCCC2)CCCC1.O=S(=O)([N-]S(=O)(=O)C(F)(F)F)C(F)(F)F.O=S(=O)([N-]S(=O)(=O)C(F)(F)F)C(F)(F)F [C9(bpy)2-NTf2, 1,9-di(butylpyrrolidinium)nonane di-bis[(trifluoromethyl)sulfonyl]imida] | 330 °C | Immiscible | Immiscible | – | – | – | – | – | – | – | – | – | – | – | – | – | – | – | – | – | – |
| Cn1cc[n+](CCCCCCCCC[n+]2ccn(C)c2)c1.O=S(=O)([N-]S(=O)(=O)C(F)(F)F)C(F)(F)F.O=S(=O)([N-]S(=O)(=O)C(F)(F)F)C(F)(F)F [C9(mim)2-NTf2, 1,9-di(3-methylimidazolium)nonane di-bis[(trifluoromethyl)sulfonyl]imidate] | 350-360 °C | Immiscible | Immiscible | 43.1 | 1.47 | 1.442 | 1.83 | 0.47 | −2.86 | 0.62 | 0.16 | 1.81 | 1.75 | 0.20 | −2.95 | 0.51 | 0.11 | 1.76 | 1.50 | 0.15 | c (interaction parameter table, constant) ([7]; 100° C.): −3.06; l (dispersion forces) ([7]; 100° C.): 0.43; r (interaction via nonbonding and π-electrons) ([7]; 100° C.): 0.11; s (dipolarity/polarizability) ([7]; 100° C.): 1.64 |
| C[N+]1(CCCCCCCCC[N+]2(C)CCCC2)CCCC1.O=S(=O)([N-]S(=O)(=O)C(F)(F)F)C(F)(F)F.O=S(=O)([N-]S(=O)(=O)C(F)(F)F)C(F)(F)F [C9(mpy)2-NTf2, 1,9-di(methylpyrrolidinium)nonane di-bis[(trifluoromethyl)sulfonyl]imidate] | > 400 °C | Immiscible | Immiscible | 42.2 | 1.41 | 1.436 | 1.98 | 0.32 | −2.83 | 0.62 | 0.27 | 1.71 | 1.65 | 0.35 | −2.85 | 0.48 | 0.34 | 1.52 | 1.48 | 0.15 | c (interaction parameter table, constant) ([7]; 100° C.): −2.99; l (dispersion forces) ([7]; 100° C.): 0.42; r (interaction via nonbonding and π-electrons) ([7]; 100° C.): 0.23; s (dipolarity/polarizability) ([7]; 100° C.): 1.49 |
| O=S(=O)([N-]S(=O)(=O)C(F)(F)F)C(F)(F)F.O=S(=O)([N-]S(=O)(=O)C(F)(F)F)C(F)(F)F.c1ccc(Cn2cc[n+](CCCCCCCCCCCC[n+]3ccn(Cc4ccccc4)c3)c2)cc1 [C12(benzim)2-NTf2, 1,12-di(3-benzylimidazolium)dodecane di-bis[(trifluoromethyl)sulfonyl]imidate] | 350-360 °C | Immiscible | Immiscible | 41.5 | 1.37 | 1.482 | 1.96 | 0.84 | −2.94 | 0.66 | 0.11 | 1.65 | 1.75 | 0.57 | −3.07 | 0.56 | 0.07 | 1.62 | 1.44 | 0.52 | c (interaction parameter table, constant) ([7]; 100° C.): −3.12; l (dispersion forces) ([7]; 100° C.): 0.46; r (interaction via nonbonding and π-electrons) ([7]; 100° C.): 0; s (dipolarity/polarizability) ([7]; 100° C.): 1.47 |
| Cn1cc[n+](CCCCCCCCCCCC[n+]2ccn(C)c2)c1.F[P-](F)(F)(F)(F)F.F[P-](F)(F)(F)(F)F [C12(mim)2-PF6, 1,12-di(3-methylimidazolium)dodecane di-hexafluorophosphate] | – | Immiscible | Immiscible | 53.4 | 1.36 | 1.436 | – | – | – | – | – | – | – | – | – | – | – | – | – | – | – |
